Entries after “also recorded” stand apart in the source; their conditions may differ.

Assay [1] has as its system A375.52 cells. Kind of assay: Scratch assay, cell migration. Conditions: over 24 hours, FIG. 5C. Type of assay: cell-based. Here is the method:
(§1) FIG. 5A-C presents exemplary data showing combinatory effects of hydroxychloroquine (HCQ) and 1-octanol on melanoma cell viability and death. […] 4-methyl-heptanol (1 mM) as negative control.
(§2) The effect of a combined inhibition of GJIC and autophagy was assessed, making use of Promega Cell-Titer Glo and Trypan blue exclusion assay to assess cell viability and cell death, respectively (FIG. 5A and FIG. 5B). […] (FIG. 5C) Cell migration was measured as distance traveled from the edge of a wound and not as percent wound closure.

In assay [2] the test system is connexins. Kind of assay: Connexin protein levels after autophagy blockade. Conditions: A375.52 cells, treatment over 24 hours, FIG. 4B. The format is cell-based. The protocol: FIGS. 4A&B presents exemplary data showing an assessment of connexin inhibition on autophagic flux and autophagic blockade on connexin protein levels. […] Tubulin as a loading control. H2O=water control, CBX=Carbenoxolone, Hep=1-Eleptanol, Oct=1-octanol, D=DMSO, HCQ=Hydroxychloroquine. Connexin protein levels were also assessed for possible modification of autophagic flux. For this purpose, hydroxychloroquine, a known autophagy inhibitor and clinically available medication was used. […] Specific autophagy inhibition may be assessed using shRNA (infra).

Assay [3] deals with A375.52. Put plainly: Trypan blue exclusion assay, cell death. Type of assay: cell-based. As to conditions: A375.52, 72 hours, FIG. 5B. The protocol: as §1, §2
Assay [4] relates to gap junction intercellular communication. Kind of assay: Microinjection imaging assay, spread of reporter dye. The format is cell-based. Conditions: time-lapse microscopy, FIGS. 7A&B. From the text: FIGS. 7A&B presents exemplary data Showing cell-cell communication in Glioblastoma Stem Cells (GSCs) cells with live imaging.
The functional status of overall connexin activity after autophagy inhibition will be addressed. […] To measure this, a microinjection imaging assay will be used. One cell is co-injected with a large fluorescent IgG that is unable to leave the parental cell along with a reporter dye that is capable of spreading to adjacent cells. Combining this with time-lapse microscopy, spread of the reporter dye (Lucifer yellow, 2NBDG-a fluorescent glucose analog) can be monitored, see FIGS. 7A&B. The spread of the dye is attenuated when using gap junction inhibitors, including carbenoxolone and 1-octanol. Utilization of multiple assessments of the gap junction intercellular communication, i.e. mRNA expression, protein levels and functional activity levels may pinpoint the particular modulation of GJIC that occurs with autophagic blockade in melanoma cells. […] Additionally, shRNA against shATG5, another key autophagy protein, could be utilized to determine if there were different effects.

In assay [5] the test system is melanoma cell lines. Put plainly: Promega Cell-Titer Glo cell viability. The format is cell-based. Conditions: two melanoma cell lines, 72 hours, FIG. 5A. The protocol:
as §1, §2

The subject of assay [6] is autophagic flux. Put plainly: Western blot of LC3 II/I ratio and p62 levels after connexin (GJIC) inhibitors. The format is cell-based. As to conditions: A375.52 melanoma cells, treatment over 24 hours, FIG. 4A. From the text:
FIGS. 4A&B presents exemplary data showing an assessment of connexin inhibition on autophagic flux and autophagic blockade on connexin protein levels. […] Tubulin as a loading control. H2O=water control, CBX=Carbenoxolone, Hep=1-Eleptanol, Oct=1-octanol, D=DMSO, HCQ=Hydroxychloroquine.
Connexin protein levels were examined within various melanoma cell lines, see FIG. 3. […] Connexins 43 and 26 has been studied previously in melanoma, and both also have shown relationships with autophagy. […] GJIC inhibition was explored, using three known connexin inhibitors, 1-octanol, 1-heptanol and carbenoxolone, the former of which is clinically available and is labeled as a food additive by the Food and Drug Administration, which is known to affect autophagic flux. GJIC inhibition was measured by changes noted in LC3 II/I ratios and p62 levels. (FIG. 4A).
For orientation: Immunoblotting shows a protein as a band on a membrane.

The subject of assay [7] is autophagic flux. As to conditions: pharmacologic blockage of GJIC, reference [21]; cited from earlier work.
Assay [8] has as its system Cx 36 and 50. Conditions: reference [49]; cited from earlier work.
Assay [9] relates to connexins 26, 32, and 43. As to conditions: reference [49]; cited from earlier work.

On to `CCN(CCO)CCCC(C)Nc1ccnc2cc(Cl)ccc12` (racemic) [hydroxychloroquine, (RS)-2-{{4-{(7-chloroquinolin-4-yl)amino}pentyl}(ethyl)amino}ethanol], for which the “cell migration (distance traveled from the edge of a wound)” value in assay [1] is “no effect”. In addition, in assay [2], the “levels of connexins 43 and 46” value was “opposite effects on levels of connexins 43 and 46”; the “protein levels of connexins” value was “affects the protein levels of specific connexins; also recorded: does affect protein levels of connexins, but not consistently”.
Regarding `CCCCCCCCO` [1-octanol], in assay [3], the cell death result is “only small effects”. In addition, the “spread of the reporter dye (Lucifer yellow, 2NBDG)” value in assay [4] is reported as “attenuated”. In addition, in assay [5], the cell viability result is reported as “only small effects”. Besides, the “cell migration (distance traveled from the edge of a wound)” value in [1] is “no effect”. Besides, in assay [6], the p62 levels entry is “increased p62 levels” and the “total LC3 levels” value is recorded as “changes in total LC3 levels”.
With `CC1(C)[C@@H](O)CC[C@]2(C)[C@H]3C(=O)C=C4[C@H]5C[C@@](C)(C(=O)O)CC[C@]5(C)CC[C@@]4(C)[C@]3(C)CC[C@@H]12` [18α glycyrrhetinic acid], in [7], the autophagic flux entry is reported as “decreased autophagic flux”.
On to `CC1(C)[C@@H](OC(=O)CCC(=O)O)CC[C@]2(C)[C@H]3C(=O)C=C4[C@@H]5C[C@@](C)(C(=O)O)CC[C@]5(C)CC[C@@]4(C)[C@]3(C)CC[C@@H]12` [carbenoxolone], for which, in assay [4], the “spread of the reporter dye (Lucifer yellow, 2NBDG)” value is “attenuated”. In assay [6], the “LC3 II/I ratio” value is given as “without clear changes in LC3 II/I ratio” and the p62 levels result is listed as “decreased p62 levels somewhat”.
Regarding `OC(c1cc(C(F)(F)F)nc2c(C(F)(F)F)cccc12)C1CCCCN1` (stereo not drawn) [mefloquine], the “block of connexin activity” value in [8] is “block activity”; in [9] it was “would require much higher doses to affect”.
